Data on 18 compounds can be found in paper PMC10280016 (Frontiers in Molecular Biosciences, 2023).

Entries after “also recorded” stand apart in the source; their conditions may differ. Like-named read-outs stand apart in the source and are kept apart here. Bounds are passed on as bounds.

The test system of data set [1] is SARS-CoV-2 strain G614. Put plainly: microbe, parasite or virus in culture. The class given is cell-based. As to conditions: for IC50: Severe acute respiratory syndrome coronavirus 2, 24 h, read-out: Anti-SARS-CoV-2 activity, spike immunostaining assay (IC50 ± SD).
Data set [2] has as its system SARS-CoV-2.
Another data set is described as follows: in vitro. As to conditions: human, Caco-2.
For the next data set, the system named is SARS-CoV. As to conditions: cited from earlier work.
Data set [3] deals with SARS-CoV main protease (Mpro, 3CL protease). Particulars: ref Wen et al., 2007; cited from earlier work.
Data set [4] concerns SARS-CoV-2 strain G614. The class given is cell-based. Particulars: at 10 µM.
Data set [5] concerns the target T1, SARS-CoV-2 main protease (Mpro) (Severe acute respiratory syndrome coronavirus 2, UniProt P0DTD1).
T1 construct: made in house
The class given is biochemical.

Data set [6] has as its system SARS-CoV-2. Particulars: Vero E6 cells; ref ter Ellen et al., 2021; cited from earlier work.
The test system of data set [7] is SARS-CoV-2. As to conditions: primary human bronchial epithelial cells, air-liquid interface culture; ref ter Ellen et al., 2021; cited from earlier work.
For data set [8], the system named is SARS-CoV-2 strain G614. Particulars: false positive in the assay; ref Bojkova et al., 2023; cited from earlier work.
The subject of data set [9] is SARS-CoV-2. As to conditions: ref Bojkova et al., 2023; cited from earlier work.

In general, IC50 refers to the concentration needed to halve the response being measured. `COc1ccc(-c2coc3cc(O)cc(O)c3c2=O)c(OC)c1O` [Compound 14, khrinone C]: the IC50 in the data set with SARS-CoV-2 strain G614 [1] is above 100 µM. Besides, the “MN Analysis: Activity classification (predicted anti-SARS-CoV-2 activity of the compound)” value in the data set on SARS-CoV-2 [2] is “inactive”. Besides, the CC50 in “in vitro” is above 100 µM.
`COc1ccc([C@@H]2COc3cc(OC)ccc3C2=O)cc1` [Compound 23, (+)-7,4′-di-O-methyldihydrodaidzein]: in the data set with SARS-CoV-2 strain G614 [1], the “Selectivity index (CC50/IC50)” value is reported as above 1.9 and the IC50 turned out to be 53.3 ± 6.2 µM. The compound further came in with a CC50 in the data set “in vitro” above 100 µM.
For `COc1ccc([C@@H]2COc3cc(OC)ccc3C2)c(O)c1` [Compound 22, (−)-isosativan], in the data set with SARS-CoV-2 strain G614 [1], the “Selectivity index (CC50/IC50)” value is reported as above 2.5 and the IC50 stood at 40.8 ± 1.8 µM. Also, the CC50 in “in vitro” was above 100 µM.
`O=C1OC[C@H](Cc2ccc3c(c2)OCO3)/C1=C\c1ccc2c(c1)OCO2` [savinin]: in the data set on SARS-CoV, the “Anti-SARS-CoV activity EC50” value is listed as “low micromolar range”. In addition, the “Inhibition of SARS-CoV main protease, mode” value in [3] is listed as “competitive inhibition”.
As to `COc1cc(O)c2c(=O)c(-c3ccc(O)c(OC)c3)coc2c1` [Compound 12, 7,3′-di-O-methylorobol], in the data set with SARS-CoV-2 strain G614 [1], the 50% inhibitory concentration (IC50) was above 100 µM. The compound also registered a CC50 in the data set “in vitro” above 100 µM.
For the compound `COc1ccc(CCCc2ccc(O)c(OC)c2)c(OC)c1` [Compound 9, pterosantalin D], the IC50 in the data set with SARS-CoV-2 strain G614 [1] is above 100 µM. The compound also came in with a CC50 in “in vitro” above 100 µM.
In the case of `Oc1ccc2c(c1)OCC1c3cc4c(cc3OC21)OCO4` (single isomer, unassigned; (-)) [Compound 3, (−)-maackiain], the IC50 with SARS-CoV-2 strain G614 [1] was above 100 µM. Further, the CC50 in “in vitro” is above 100 µM.
In the case of `COc1ccc2c(c1)OC1c3ccc(O)cc3OCC21` (single isomer, unassigned; (-)) [Compound 2, (−)-medicarpin], in the data set on SARS-CoV-2 strain G614 [1], the “Selectivity index (CC50/IC50)” value is on record as above 3.0 and the IC50 is 33.4 ± 9.7 µM. In “in vitro”, the CC50 is above 100 µM.
Consider `COc1ccc2c(c1)OC[C@H]1c3cc4c(cc3O[C@@H]21)OCO4` [Compound 6, (−)-pterocarpin], for which the IC50 with SARS-CoV-2 strain G614 [1] was above 100 µM. For the same compound, the “MN Analysis: Activity classification (predicted anti-SARS-CoV-2 activity of the compound)” value in the data set on SARS-CoV-2 [2] is on record as “active”. Moreover, the CC50 in “in vitro” is above 100 µM.
Take `CCC(CC)COC(=O)[C@H](C)N[P@](=O)(OC[C@H]1O[C@@](C#N)(c2ccc3c(N)ncnn23)[C@H](O)[C@@H]1O)Oc1ccccc1` [remdesivir, reference compound]: the “Anti-SARS-CoV-2 activity, Caspase assay [% inhibition]” value in the data set on SARS-CoV-2 strain G614 [4] is 93.4 (at 10 µM) % inhibition. Moreover, in the data set on SARS-CoV-2 strain G614 [1], the “Selectivity index (CC50/IC50)” value was above 58.8, the “Selectivity index CC50/IC50” value is on record as above 58.8 and the half-maximal inhibitory concentration (IC50) is 0.17 ± 0.01 µM. In the data set “in vitro”, this compound displayed a CC50 above 10 µM.
Take `COc1cc(O)c2c(=O)c(-c3ccc(O)cc3)coc2c1` [Compound 11, 7-O-methylgenistein]: in the data set with SARS-CoV-2 strain G614 [1], the “Selectivity index (CC50/IC50)” value was above 2.6 and the IC50 came out at 37.9 ± 5.4 µM. The CC50 in “in vitro” is above 100 µM.
As to `COc1ccc2c(c1)oc(=O)c1c3ccc(OC)cc3oc21` [Compound 16, 3,9-di-O-methylcoumestrol], the IC50 with SARS-CoV-2 strain G614 [1] is above 100 µM. For the same compound, the CC50 in the data set “in vitro” was above 100 µM.
In the case of `COc1ccc2c(c1)O[C@H]1c3ccc(OC)cc3OC[C@@H]21` [Compound 5, (−)-homopterocarpin], in the data set on SARS-CoV-2 strain G614 [1], the “Selectivity index (CC50/IC50)” value is reported as above 5.8 and the IC50 amounted to 17.2 ± 1.9 µM. Also, in [5], the “SARS-CoV-2 Mpro inhibition” value is given as “did not show any inhibitory activity; also recorded: no inhibitory activity”. The “MN Analysis: Activity classification (predicted anti-SARS-CoV-2 activity of the compound)” value in the data set with SARS-CoV-2 [2] is “active”. The same compound displayed a CC50 in the data set “in vitro” above 100 µM.
As to `COc1cc2c(cc1O)C1COc3cc(O)ccc3C1O2` (single isomer, unassigned; (-)) [Compound 4, (−)-3,8-dihydroxy-9-methoxypterocarpan], the IC50 in the data set with SARS-CoV-2 strain G614 [1] is above 100 µM. In the data set on SARS-CoV-2 [2], the “MN Analysis: Activity classification (predicted anti-SARS-CoV-2 activity of the compound)” value is “inactive”. The same compound showed a CC50 in “in vitro” above 100 µM.
With `COc1cc(O)c2c(=O)c(-c3ccc(O)c(O)c3)coc2c1` [Compound 13, santal], in the data set on SARS-CoV-2 strain G614 [1], the “Selectivity index (CC50/IC50)” value is listed as above 1.4 and the IC50 is 74.2 ± 15.4 µM. The CC50 in the data set “in vitro” is above 100 µM.
For the compound `COc1cc(/C=C/c2ccc(O)cc2)cc(OC)c1` [Compound 1, (E)-pterostilbene], the “Selectivity index (CC50/IC50)” value in the data set on SARS-CoV-2 strain G614 [1] is given as above 2.9. The IC50 with SARS-CoV-2 strain G614 [1] worked out at 34.7 ± 1.6 µM. For the same compound, the Anti-SARS-CoV-2 activity result in the data set with SARS-CoV-2 [6] and in the data set on SARS-CoV-2 [7] was “has shown anti-SARS-CoV-2 activity” in each case. The CC50 in the data set “in vitro” is above 100 µM.
Regarding `COc1ccc2c(c1)OC[C@H]1c3cc(O)c(OC)cc3O[C@@H]21` [Compound 7, (−)-8-hydroxyhomopterocarpan], in the data set with SARS-CoV-2 strain G614 [1], the IC50 was above 100 µM. The CC50 in “in vitro” was above 100 µM.
Consider `C[C@H](NC(=O)C(=O)Nc1ccccc1C(C)(C)C)C(=O)N[C@@H](CC(=O)O)C(=O)COc1c(F)c(F)cc(F)c1F` [emricasan], for which, in the data set with SARS-CoV-2 strain G614 [8], the “Effect on SARS-CoV-2-induced caspase 3/7 activity” value is reported as “supressed SARS-CoV-2-induced caspase 3/7 activity”. In the data set on SARS-CoV-2 [9], the “Effect on SARS-CoV-2 replication” value is “did not affect SARS-CoV-2 replication”.
